Data: publication PMC12505902, “Inhibitors of trehalose-6-phosphate synthase activity in fungal pathogens compromise thermal tolerance pathways” (mBio, 2025)

Columns and labels:
C. neoformans WT H99 = experiment: C. neoformans capsule assay (India Ink); type: cell-based; details: 0.1, 0.5 and 1 mM 4456dh, 72 hours at 30°C, dose-dependent
Experimental: Fig 5 4456dh treatment results in reduced trehalose accumulation and a decrease in Tps1-dependent virulence factors. Trehalose accumulation measurements for C. albicans (A) and C. neoformans (B) cultured at indicated temperatures in the absence or presence of 0.5 mM 4456dh. Trehalose was measured using a colorimetric glucose assay after treatment of cultures with trehalase. Statistical comparisons were done with a one-way analysis of variance (ANOVA) analysis followed by a post hoc Tukey’s test. Error bars represent SE. (C) C. albicans WT strain SC5314 cells were treated with 0.5 mM, 1.0 mM, and 5 mM 4456dh. Untreated C. albicans WT cells and the C. albicans tps1Δ/tps1Δ deletion strain were included in this experiment as positive and negative controls, respectively. Increasing concentrations of 4456dh negatively affect filamentation in C. albicans in YPD plus 10% fetal bovine serum incubated at 37°C for 2 hours. Representative images from two independent experiments are shown. The scale bars represent 10 microns. (D) Analysis of capsule formation in C. neoformans WT H99 using India Ink counter-staining in cells treated with 0.1 mM, 0.5 mM, and 1 mM 4456dh. […] Cells were harvested, stained in India Ink, and analyzed using differential interference contrast imaging. […]
(§1) 190 (Zeiss). The size of the capsule of > 100 cells per 4456dh treatment was quantified using Image […]

C. neoformans H99 = experiment: Epsilometer test (E-test) with fluconazole strips; type: cell-based; details: YPD plates with 4456dh, fluconazole E-test strip, 37°C, 72 h, dose-dependent
Experimental: Inhibitors of Tps1 may work synergistically with known antifungal drugs. In C. glabrata, the trehalose biosynthesis mutant, tps2Δ, is more susceptible to fluconazole at 37°C ([40]). Therefore, we hypothesized that there might be synergy between 4456dh and fluconazole.
169 different concentrations (0.5mM, 1mM, and 5mM) and one was used as untreated control.
170 tps1/ tps1 deletion mutant was used as a negative control for filamentation in these assays. 10 µl
171 of cell suspension was directly used for imaging the filamentation status of the cells using the
172 Zeiss Axio Scope microscope attached to the Axiocam at 40X magnification. The images were
173 processed using Fiji (8) for the final presentation.
174 Epsilometer Test (E-test)
175 C. neoformans wild type (H99) was incubated in a shaking culture of YPD medium for 18 h at
176 30 °C. The culture was diluted to an OD600 0.6, diluted 10-fold in PBS, and 100 µL was spread
177 onto 60 X 15 mm YPD agar plates prepared with different concentrations of 4456dh. After the […]
as §1
247 was measured using a colorimetric glucose assay after treatment of cultures with trehalase. […]
249 Supplemental Figure 11. Quantification of capsule formation in C. neoformans treated with
250 4456dh. Images taken were analyzed with ImageJ. […]
251 were analyzed. […]

SMILES: Cn1cc(-c2csc(NC(=O)Cc3ccccn3)n2)cn1 [Compound 4456dh]
- capsule production (C. neoformans WT H99): capsule production was affected
- synergy with fluconazole (C. neoformans H99): detected synergy
